Reference: patent US20150313862A1, “"Pharmaceutical composition for reducing the trimethylamine N-oxide level"” (Latvian Institute of Organic Synthesis, priority 2012, published 2015)
Marks after values point to notes of the source that are not given here.

What was measured:
TMANO [1] = test: Total amount of TMANO excreted with urine during 7 days, healthy volunteers on a TMANO source rich diet (UPLC-MS/MS, creatinine by Jaffe method); type: in vivo, human; settings: for Total excreted with urine TMANO amount during 7 days: healthy volunteers (n=8), 7 days TMANO source rich diet with oral Meldonium 1 g/day, area under the curve, mean ± SEM, diet alone 18.2 ± 2.2, baseline 2.8 ± 0.6, dihydrate
Protocol: (§1) Eight healthy volunteers were involved in the study, 4 women and 4 men. The study was conducted in accordance with the Declaration of Helsinki, and with bioethical norms approved by the Central Committee of Medical Ethics. All study participants have signed informed consent forms. Exclusion criteria for participation in the study were: the use of dietary supplements, smoking, pregnancy and alcohol addiction. At the study beginning information about the participant's age, medication use, height and weight was recorded.
Then, a venous blood sample and evening and morning urine samples were collected from the study participants. At the first stage of experiment, all participants received 150 grams of fish for lunch, once a day, during 7 days, which served as a source of TMANO increased formation in the body (W. J. Dyer. Amines in Fish Muscle. VI. Trimethylamine Oxide Content of Fish and Marine Invertebrates, Journal of the Fisheries Research Board of Canada, 8c(5): 314-324, 10.1139/f50-020, 1952). […]
(§2) TMANO concentration in plasma and urine samples was determined by ultrahigh performance liquid chromatography-tandem mass spectrometry method. […] TMANO detection and quantification was performed using Quattro Micro™ spectrometer (Micromass) in an ion reaction monitoring (TMANO ion transition m/z75.8>m/z58.3, IS ion transition m/z175.4>m/z86.0) positive electrospraying mode (cone voltage 26V, collision energy 14 eV, collision gas—argon). […]
TMANO concentration in the sample was calculated using the linear relationship TMANO peak area/IS peak area—TMANO concentration using the data processing software QuanLynx V4.1 (Waters).
Creatinine concentration was calculated by slightly modified Jaffe method (Jaffe M. Ueber die Niederschlag, welchen Pikrinsaure in normalem Ham erzeugt and uber eine neue Reaction des Kreatinins. Z physiol Chem 1886; 10: 391-400). […] After 10 min of incubation at room temperature the absorbance was measured at 492 nm with a μQuant™ multiwell plate […] spectrophotometer (Biotek Instruments, USA). […]

[2] = cited from earlier work
TMANO [3] = test: TMANO concentration in blood plasma of healthy volunteers on a TMANO source rich diet (UPLC-MS/MS); type: in vivo, human; settings: for TMANO concentration in study participant's blood plasma: healthy volunteers (n=8), after 7 days TMANO source rich diet (150 g fish/day) with oral Meldonium 500 mg twice a day, mean ± SEM, diet alone 81.5 ± 8.6, baseline 4.9 ± 1.3, dihydrate
Protocol: as §1
Then, a venous blood sample and evening and morning urine samples were collected from the study participants. At the first stage of experiment, all participants received 150 grams of fish for lunch, once a day, during 7 days, which served as a source of TMANO increased formation in the body (W. J. Dyer. Amines in Fish Muscle. VI. Trimethylamine Oxide Content of Fish and Marine Invertebrates, Journal of the Fisheries Research Board of Canada, 8c(5): 314-324, 10.1139/f50-020, 1952).
During the next stage of experiment, to determine the effect of Meldonium on TMANO concentration in blood plasma and urine, in addition to trimethylamine-rich food source, a pharmaceutical composition containing 500 mg of Meldonium was administered to each study participant during 7 days, twice a day (morning and evening). […]
as §2
TMANO concentration in the sample was calculated using the linear relationship TMANO peak area/IS peak area—TMANO concentration using the data processing software QuanLynx V4.1 (Waters). […]

C[N+](C)(C)NCCC(=O)[O-] [Meldonium, 3-(2,2,2-trimethyhydrazinium)propionate dihydrate]
Increase of urine excreted TMANO amount (TMANO [1]; 7 days oral Meldonium 500 mg twice a day with TMANO-rich food, versus before Meldonium use, statistically significant): about 25%
Total excreted with urine TMANO amount during 7 days (TMANO [1]): 24.3±1.5 μmol/mg creatinine *7 d
Total excreted with urine TMANO amount during 7 days (TMANO [1]; listed as TMANO + Meldonium): 24.3 ± 1.5*^,# μmol/mg creatinine *7 d
Solubility in water [2]: easily soluble in water
Reduction of TMANO plasma concentration (TMANO [3]; 7 days oral Meldonium 500 mg twice a day with TMANO-rich food, compared with TMANO level before Meldonium use, statistically significant): 47%
TMANO concentration in study participant's blood plasma (TMANO [3]): 43.0 ± 3.8 nmol/mL
TMANO concentration in study participant's blood plasma (TMANO [3]; listed as TMANO + Meldonium): 43.0 ± 3.8*^,# nmol/ml
